# Reference: article PMC11062894, “Protein-based bandpass filters for controlling cellular signaling with chemical inputs” (Nature Chemical Biology, 2023)
# Tested on: GEMS receptors with CBPvene (Bcl2–LD3 and Bcl2high variants), STAT3-driven SEAP in HEK293T cells
# Test: GEMS SEAP reporter assay, CBPvene (Bcl2high, LD3-v and Bcl2-v variants) with venetoclax
# Format: cell-based
# [1] = Supp Fig 10b, Bcl2-v4, venetoclax 316 nM
# [2] = Supp Fig 10b, Bcl2-v4, venetoclax 1000 nM
# [3] = Supp Fig 10b, Bcl2-v4, venetoclax 3160 nM
# [4] = Supp Fig 10b, Bcl2-v4, venetoclax 10000 nM
# [5] = Supp Fig 10b, Bcl2-v5, venetoclax 1 nM
# [6] = Supp Fig 10b, Bcl2-v5, venetoclax 3.16 nM
# [7] = Supp Fig 10b, Bcl2-v5, venetoclax 10 nM
# [8] = Supp Fig 10b, Bcl2-v5, venetoclax 31.6 nM
# [9] = Supp Fig 10b, Bcl2-v5, venetoclax 100 nM
# [10] = Supp Fig 10b, Bcl2-v5, venetoclax 316 nM
# [11] = Supp Fig 10b, Bcl2-v5, venetoclax 1000 nM
# [12] = Supp Fig 10b, Bcl2-v5, venetoclax 3160 nM
# [13] = Supp Fig 10b, Bcl2-v5, venetoclax 10000 nM
# [14] = Supp Fig 10b, Bcl2-v6, venetoclax 1 nM
# [15] = Supp Fig 10b, Bcl2-v6, venetoclax 3.16 nM
# [16] = Supp Fig 10b, Bcl2-v6, venetoclax 10 nM
# [17] = Supp Fig 10b, Bcl2-v6, venetoclax 31.6 nM
# [18] = Supp Fig 10b, Bcl2-v6, venetoclax 100 nM
# [19] = Supp Fig 10b, Bcl2-v6, venetoclax 316 nM
# [20] = Supp Fig 10b, Bcl2-v6, venetoclax 1000 nM
# [21] = Supp Fig 10b, Bcl2-v6, venetoclax 3160 nM
# [22] = Supp Fig 10b, Bcl2-v6, venetoclax 10000 nM
# [23] = Supp Fig 10b, Bcl2, venetoclax 1 nM
# [24] = Supp Fig 10b, Bcl2, venetoclax 3.16 nM
# [25] = Supp Fig 10b, Bcl2, venetoclax 10 nM
# [26] = Supp Fig 10b, Bcl2, venetoclax 31.6 nM
# [27] = Supp Fig 10b, Bcl2, venetoclax 100 nM
# [28] = Supp Fig 10b, Bcl2, venetoclax 316 nM
# [29] = Supp Fig 10b, Bcl2, venetoclax 1000 nM
# [30] = Supp Fig 10b, Bcl2, venetoclax 3160 nM
# [31] = Supp Fig 10b, Bcl2, venetoclax 10000 nM
# [32] = Supp Fig 10c, Bcl2-v1, venetoclax 1 nM
# [33] = Supp Fig 10c, Bcl2-v1, venetoclax 3.16 nM
# [34] = Supp Fig 10c, Bcl2-v2, venetoclax 1 nM
# [35] = Supp Fig 10c, Bcl2-v2, venetoclax 3.16 nM
# [36] = Supp Fig 10c, Bcl2-v3, venetoclax 1 nM
# [37] = Supp Fig 10c, Bcl2-v3, venetoclax 3.16 nM
# [38] = Supp Fig 10c, Bcl2-v5, venetoclax 1 nM
# [39] = Supp Fig 10c, Bcl2-v5, venetoclax 3.16 nM
# [40] = Supp Fig 10c, Bcl2-v6, venetoclax 1 nM
# [41] = Supp Fig 10c, Bcl2, venetoclax 1 nM
# [42] = Supp Fig 10c, Bcl2, venetoclax 3.16 nM
# [43] = SuppFigure 8a, LD3, venetoclax 1 nM
# [44] = SuppFigure 8a, LD3, venetoclax 3.16 nM
# [45] = SuppFigure 8a, LD3, venetoclax 100 nM
# [46] = SuppFigure 8a, LD3, venetoclax 316 nM
# [47] = SuppFigure 8a, LD3, venetoclax 1000 nM
# [48] = SuppFigure 8a, LD3, venetoclax 3160 nM
# [49] = SuppFigure 8a, LD3, venetoclax 10000 nM
# [50] = SuppFigure 8a, LD3v1, venetoclax 1 nM
# [51] = SuppFigure 8a, LD3v1, venetoclax 3.16 nM
# [52] = SuppFigure 8a, LD3v1, venetoclax 100 nM
# [53] = SuppFigure 8a, LD3v1, venetoclax 316 nM
# [54] = SuppFigure 8a, LD3v1, venetoclax 1000 nM
# [55] = SuppFigure 8a, LD3v1, venetoclax 3160 nM
# [56] = SuppFigure 8a, LD3v1, venetoclax 10000 nM
# [57] = SuppFigure 8a, LD3v2, venetoclax 1 nM
# [58] = SuppFigure 8a, LD3v2, venetoclax 3.16 nM
# [59] = SuppFigure 8a, LD3v2, venetoclax 100 nM
# [60] = SuppFigure 8a, LD3v2, venetoclax 316 nM
# [61] = SuppFigure 8a, LD3v2, venetoclax 1000 nM
# [62] = SuppFigure 8a, LD3v2, venetoclax 3160 nM
# [63] = SuppFigure 8a, LD3v2, venetoclax 10000 nM
# [64] = SuppFigure 8a, LD3v3, venetoclax 1 nM
# [65] = SuppFigure 8a, LD3v3, venetoclax 3.16 nM
# [66] = SuppFigure 8a, LD3v3, venetoclax 100 nM
# [67] = SuppFigure 8a, LD3v3, venetoclax 316 nM
# [68] = SuppFigure 8a, LD3v3, venetoclax 1000 nM
# [69] = SuppFigure 8a, LD3v3, venetoclax 3160 nM
# [70] = SuppFigure 8a, LD3v3, venetoclax 10000 nM
# [71] = SuppFigure 8b, LD3, venetoclax 1 nM
# [72] = SuppFigure 8b, LD3, venetoclax 3.16 nM
smiles,measurement,setting,value
CC1(C)CCC(CN2CCN(c3ccc(C(=O)NS(=O)(=O)c4ccc(NCC5CCOCC5)c([N+](=O)[O-])c4)c(Oc4cnc5[nH]ccc5c4)c3)CC2)=C(c2ccc(Cl)cc2)C1 [Venetoclax],SEAP normalized (max=100),"Supp Fig 10b, Bcl2-v4, venetoclax 100 nM",78.5961
same,SEAP,[1],14.4979
same,SEAP normalized (max=100),[1],43.8128
same,SEAP,[2],9.936
same,SEAP normalized (max=100),[2],30.0279
same,SEAP,[3],8.423
same,SEAP normalized (max=100),[3],25.4557
same,SEAP,[4],7.624
same,SEAP normalized (max=100),[4],23.0384
same,SEAP,[5],45.7217
same,SEAP normalized (max=100),[5],92.4038
same,SEAP,[6],49.4803
same,SEAP normalized (max=100),[6],100
same,SEAP,[7],40.0805
same,SEAP normalized (max=100),[7],81.0029
same,SEAP,[8],46.2116
same,SEAP normalized (max=100),[8],93.3938
same,SEAP,[9],42.8958
same,SEAP normalized (max=100),[9],86.6926
same,SEAP,[10],30.6164
same,SEAP normalized (max=100),[10],61.8759
same,SEAP,[11],14.0666
same,SEAP normalized (max=100),[11],28.4288
same,SEAP,[12],10.2265
same,SEAP normalized (max=100),[12],20.6679
same,SEAP,[13],6.4792
same,SEAP normalized (max=100),[13],13.0945
same,SEAP,[14],50.15
same,SEAP normalized (max=100),[14],13.184
same,SEAP,[15],55.0335
same,SEAP normalized (max=100),[15],14.4678
same,SEAP,[16],53.9332
same,SEAP normalized (max=100),[16],14.1785
same,SEAP,[17],141.748
same,SEAP normalized (max=100),[17],37.2641
same,SEAP,[18],380.387
same,SEAP normalized (max=100),[18],100
same,SEAP,[19],330.205
same,SEAP normalized (max=100),[19],86.8077
same,SEAP,[20],170.706
same,SEAP normalized (max=100),[20],44.877
same,SEAP,[21],26.4901
same,SEAP normalized (max=100),[21],6.964
same,SEAP,[22],10.3289
same,SEAP normalized (max=100),[22],2.715
same,SEAP,[23],34.2584
same,SEAP normalized (max=100),[23],5.865
same,SEAP,[24],39.5038
same,SEAP normalized (max=100),[24],6.763
same,SEAP,[25],88.7679
same,SEAP normalized (max=100),[25],15.1973
same,SEAP,[26],235.479
same,SEAP normalized (max=100),[26],40.3146
same,SEAP,[27],448.604
same,SEAP normalized (max=100),[27],76.8023
same,SEAP,[28],584.102
same,SEAP normalized (max=100),[28],100
same,SEAP,[29],347.384
same,SEAP normalized (max=100),[29],59.4733
same,SEAP,[30],20.111
same,SEAP normalized (max=100),[30],3.443
same,SEAP,[31],12.4887
same,SEAP normalized (max=100),[31],2.138
same,SEAP,[32],26.1238
same,SEAP normalized (max=100),[32],100
same,SEAP,[33],24.5196
same,SEAP normalized (max=100),[33],93.8591
same,SEAP,[34],41.9684
same,SEAP normalized (max=100),[34],37.8578
same,SEAP,[35],39.8265
same,SEAP normalized (max=100),[35],35.9258
same,SEAP,[36],35.0656
same,SEAP normalized (max=100),[36],94.2276
same,SEAP,[37],34.981
same,SEAP normalized (max=100),[37],94.0003
same,SEAP,[38],25.6864
same,SEAP normalized (max=100),[38],99.6735
same,SEAP,[39],25.7705
same,SEAP normalized (max=100),[39],100
same,SEAP,[40],44.5051
same,SEAP normalized (max=100),[40],24.1282
same,SEAP,[41],9.631
same,SEAP normalized (max=100),[41],6.451
same,SEAP,[42],8.848
same,SEAP normalized (max=100),[42],5.926
same,Normalized data (SEAP),[43],18.1283
same,Raw data (SEAP),[43],14.9284
same,Normalized data (SEAP),[44],15.4665
same,Raw data (SEAP),[44],12.7365
same,Normalized data (SEAP),[45],62.0224
same,Raw data (SEAP),[45],51.0746
same,Normalized data (SEAP),[46],79.6476
same,Raw data (SEAP),[46],65.5888
same,Normalized data (SEAP),[47],100
same,Raw data (SEAP),[47],82.3488
same,Normalized data (SEAP),[48],64.1557
same,Raw data (SEAP),[48],52.8314
same,Normalized data (SEAP),[49],26.7094
same,Raw data (SEAP),[49],21.9948
same,Normalized data (SEAP),[50],73.3263
same,Raw data (SEAP),[50],13.9463
same,Normalized data (SEAP),[51],77.9742
same,Raw data (SEAP),[51],14.8303
same,Normalized data (SEAP),[52],93.9945
same,Raw data (SEAP),[52],17.8773
same,Normalized data (SEAP),[53],100
same,Raw data (SEAP),[53],19.0195
same,Normalized data (SEAP),[54],92.9583
same,Raw data (SEAP),[54],17.6802
same,Normalized data (SEAP),[55],77.7035
same,Raw data (SEAP),[55],14.7788
same,Normalized data (SEAP),[56],63.3664
same,Raw data (SEAP),[56],12.052
same,Normalized data (SEAP),[57],16.5083
same,Raw data (SEAP),[57],13.4033
same,Normalized data (SEAP),[58],16.1655
same,Raw data (SEAP),[58],13.125
same,Normalized data (SEAP),[59],55.5208
same,Raw data (SEAP),[59],45.078
same,Normalized data (SEAP),[60],68.4407
same,Raw data (SEAP),[60],55.5679
same,Normalized data (SEAP),[61],100
same,Raw data (SEAP),[61],81.1913
same,Normalized data (SEAP),[62],59.661
same,Raw data (SEAP),[62],48.4395
same,Normalized data (SEAP),[63],19.9233
same,Raw data (SEAP),[63],16.176
same,Normalized data (SEAP),[64],79.8276
same,Raw data (SEAP),[64],14.5214
same,Normalized data (SEAP),[65],77.8421
same,Raw data (SEAP),[65],14.1602
same,Normalized data (SEAP),[66],89.5467
same,Raw data (SEAP),[66],16.2894
same,Normalized data (SEAP),[67],90.6522
same,Raw data (SEAP),[67],16.4905
same,Normalized data (SEAP),[68],100
same,Raw data (SEAP),[68],18.191
same,Normalized data (SEAP),[69],92.956
same,Raw data (SEAP),[69],16.9096
same,Normalized data (SEAP),[70],54.34
same,Raw data (SEAP),[70],9.885
same,Normalized data (SEAP),[71],3.308
same,Raw data (SEAP),[71],13.9036
same,Normalized data (SEAP),[72],3.395
same,Raw data (SEAP),[72],14.2688
